Reference: US20210220450A1, “TREATMENT OF AN IOP CONDITION” (The Research Foundation for The State University of New York, priority 2013, published 2021)

Tests used:
C57BL/6J mice = assay: Outflow facility in TA and adenovirus treated C57BL/6J mouse eyes (Example 12); assay type: in vivo; conditions: TA exposed eyes vs naïve C57BL/6J
Procedure: Steroid, adenoviral and protein injections. Intracameral adenovirus and intravitreal protein injections were performed using a 10 μl Hamilton syringe with 36-gauge stainless steel needles (WPI Inc, Sarasota, Fla., USA) while subconjunctival injections were performed using a 100 μl Hamilton Syringe with 26-gauge needles (Precision Glide, Becton Dickinson & CO, Franklin Lakes, N.J., USA). All injections were performed under isoflurane inhalation anesthesia and topical anesthesia with 0.5% proparacaine. C57BL/6J mice undergoing adenovirus treatment received bilateral injections with 20 μl of triamcinolone acetonide (TA) suspension (40 mg/ml, Kenalog-40; Bristol-Myers Squibb, NY, USA) subconjunctivally immediately prior to the intracameral adenovirus injection. Animals were then divided into three groups (FIG. 10a): […]
Outflow facility determination: Mouse eyes were enucleated immediately after euthanasia. Outflow facility was determined using a constant pressure method, as previously described. […] Flow was constantly measured via a microfluidic flow sensor (0.07-1.5 uL/min, MFS1; Elveflow, Paris, France). […] Any eyes that developed visible leaks during outflow facility determination, or that had pressure-flow correlations with R^2<0.9, were excluded from analysis but were used for RNA quantification.

C57/1B6 mice = assay: Outflow facility in TA-treated mice injected intracamerally with AdPLAT (Example 1); assay type: in vivo
Procedure: Methods: Adenoviral vectors carrying cDNA of the sheep PLAT gene and a fluorescent reporter gene (mCherry) (AdPLAT) or with no transgene (AdNull) were created. Transgene expression was driven by the CMV promoter. 3 groups of C57/1B6 mice received either: (1) 20 μl of triamcinolone acetonide (TA) suspension (40 mg/ml) subconjunctivally bilaterally followed immediately by unilateral intracameral injection with 2 μl AdPLAT (3-4×10^12 VG/ml); (2) 20 μl TA subconjunctivally bilaterally followed one week later by unilateral intracameral injection with 2 μl AdPLAT; or (3) 20 μl TA subconjunctivally bilaterally followed immediately by bilateral injection with 2 μl adenovirus AdNull. IOP was measured preterminally. Outflow facility was determined using simultaneous pressure and flow measurements (see FIGS. 2A-2C). After outflow facility measurement, all AdPLAT injected eyes were dissected and viewed under a fluorescent microscope to inspect for mCherry expression in the trabecular meshwork (TM).

Mmp-2, Mmp-9, Mmp-13 [1] = assay: Mmp expression in Tg-MYOCY437H angle ring tissue (Example 19); assay type: in vivo, mouse; conditions: 5 days, vs BSA treated eyes
Procedure: Eyes were flash frozen in liquid nitrogen after outflow facility determination and subsequently dissected on ice to obtain the angle ring tissues containing the TM, as previously described (Kumar, Shah et al. 2013). Dissected TM tissues were immersed in RNAlater solution (Invitrogen, Waltham, Mass., USA) and then snap-frozen and stored at −80° C. until RNA extraction. Tissue collected was pooled (four eyes) and homogenized in TRIzol reagent for RNA isolation, per manufacturer's instructions (Life Technologies, Carlsbad, Calif., USA). RNA concentration was determined with a Nanodrop ND-1000 Spectrophotometer (Thermo Scientific, Wilmington, Del., USA). cDNA was synthesized by using High-Capacity cDNA Reverse Transcription Kit (Applied Biosystems, Waltham, Mass., USA) according to manufacturer's protocol. Quantitative real-time PCR (qRT-PCR) was performed by using Green-2-Go qPCR Mastermix-ROX (Bio Basic, Amherst, N.Y., USA) on a QuantStudio 6 Flex thermal cycler (Applied Biosystems, Carlsbad, Calif., USA). mRNA expression of Plat, Plau, Pai-1, Mmp-2, Mmp-9, and Mmp-13 in angle ring tissues was determined. Primers were designed by using Primer-BLAST (https://www.ncbi.nlm.nih.gov/tools/primer-blast/index.cgi?LINK_LOC=BlastHome; in the public domain); primer sequences are listed in Table 2. Primer specificity was confirmed by agarose gel electrophoresis and multiple-sized amplification products were absent on inspection of melting curves. Target mRNA expression values were normalized to the expression levels of Rps11 (ribosomal protein S11). The relative fold change was calculated by using the ΔΔCt method (Hu, Wang et al. 2015). Outliers identified via the Thompson Tau test were removed from analysis.

[2] = test system: sheep of the Corriedale breed; assay: Steroid-induced IOP elevation in sheep, intravitreal tPA (Examples 3, 4); assay type: in vivo
Procedure: Protocol 1. 8 sheep of the Corriedale breed were treated with prednisolone acetate three times a day in both eyes, leading to elevated IOP. After one week, the animals received intravitreal injections of human recombinant tPA (100, 200, 500 and 1000 μg, two animals each) dissolved in balanced salt solution (BSS) in one eye. IOP was monitored for 19 more days while the animals continued to receive treatment with prednisolone. Periodic slit lamp examination was also performed.
Protocol 2. In a second set of experiments, arginine was added to the BSS vehicle administered to the left eye to control for the relatively high concentration of the amino acid in the commercially available tPA lyophilisate. In these experiments all right eyes received 0.1 mg tPA, which concomitantly delivered 4.23 mg of arginine into the vitreous, and the left eye received this same amount of arginine, absent the tPA. On Day 1, prednisolone treatments were also begun simultaneously on both eyes.
Methods. In this experiment, the inventor sought to detect the effects of tPA treatment on prevention of steroid-induced IOP elevation. In 4 sheep tPA was injected in one eye (100 μg) and they were started on prednisolone acetate three times a day in both eyes. Animals were monitored for 11 days on continuous treatment.

[3] = test system: sheep of the Coriedale breed; assay: Steroid-induced IOP elevation in sheep, tPA injected into the anterior chamber (Example 9); assay type: in vivo; conditions: amount of arginine associated with 0.01 ug tPA, injected alone
Procedure: Methods. Lyophilized tPA, obtained as Acetilyse® from Boehringer Ingelheim S. A. (Buenos Aires) containing arginine, was used. Five sheep of the Coriedale breed were selected. Initially all eyes received instillation of 1% prednisolone 3 times/day for 10 days to elevate their IOP from 10 mm Hg to about 23 mm Hg. Then, 0.0001 μg was injected into one of the eyes and its effect was followed for up to 55:00 hrs while the instillation of prednisolone continued in both eyes. The same protocol was implemented for the 0.001 and 0.01 μg amounts (after extended washout) in the contra lateral eyes. Arginine, which is associated with 0.01 ug tPA, was injected alone and had no effect.

HTM cells = assay: Simulated outflow facility of HTM cells in artificial conventional outflow system (ACOS) (Examples 17, 18); assay type: cell-based; conditions: PA treatment
Procedure: HTM cells were treated with 300 nM prednisolone acetate (PA) for 72 h to reduce outflow facility. They were then treated with either tissue plasminogen activator (tPA), non-enzymatically active tPA (NE-tPA) or bovine serum albumin (BSA) and perfused in artificial conventional outflow system (ACOS). Simulated outflow facilities (mean±standard deviation) (μl/min/mmHg/mm^2) was 2.4±0.6×10-1 for PA, 3±1.2×10-1 for PA+BSA, 7±1.2×10-1 for PA+tPA and 5.4±0.9×10-1 for PA+NE-tPA (p<0.0001, ANOVA).
HTM cells were treated with PA+NE-tPA and inhibitors of either LRP1 (RAP) or NMDA receptor (MK-801) and were perfused in ACOS. Simulated outflow facility (meant standard deviation μl/min/mmHg/mm^2) was 5.5±0.7×10-1 for PA+NE-tPA, 2.9±1.3×10-1 for PA+NE-tPA+MK-801, 2.7±1.2×10-1 for PA+NE-tPA+RAP and 3.3±1.3×10-1 for PA+NE-tPA+MK-801+RAP.

PLAT = PLAT mRNA in HTM cells after prednisolone (Example 8); assay type: cell-based; conditions: HTM cells from two donors; as early as 1 hour after prednisolone
Text: FIG. 8. Relative fold difference of PLAT mRNA from 18S mRNA amounts in HTM cells treated with prednisolone acetate (PA treated) or vehicle (Control) for […].

MMP-2, MMP-9, MMP-13 [4] = assay: MMP expression in PA treated HTM cells (Examples 17, 18); assay type: cell-based
[5] = added to PA+NE-tPA, vs PA+NE-tPA treated cells

## CC1(C)O[C@@H]2C[C@H]3[C@@H]4CCC5=CC(=O)C=C[C@]5(C)[C@@]4(F)[C@@H](O)C[C@]3(C)[C@]2(C(=O)CO)O1 [TA, triamcinolone acetonide]
C57BL/6J mice
  reduction in outflow facility from baseline: ~46%
C57/1B6 mice; TA only eyes, two weeks of TA, n=24
  outflow facility, mean±SD: 0.0067±0.0028 μl/min/mmHg
C57/1B6 mice; contralateral eyes injected with TA alone, concurrent experiment, n=22
  outflow facility, mean±SD: 0.0060±0.0025 μl/min/mmHg

## O=C([O-])CCCc1ccccc1.[Na+] [PBA, sodium phenylbutarate, reference compound]
Mmp-2, Mmp-9, Mmp-13 [1]
  Mmp-2 expression: no significant difference
  Mmp-9 expression: higher
  Mmp-13 expression: did not show any difference

## N=C(N)NCCC[C@H](N)C(=O)O [arginine, reference compound]
[2]; 4.23 mg arginine intravitreal, prednisolone
  effect of arginine alone on steroid-increased IOP: does not alter
[2]; eye receiving arginine plus prednisolone (OS)
  effect of arginine alone on outflow facility: failed to reduce
[3]
  effect of arginine alone on IOP: had no effect

## CC(=O)OCC(=O)[C@@]1(O)CC[C@H]2[C@@H]3CCC4=CC(=O)C=C[C@]4(C)[C@H]3[C@@H](O)C[C@@]21C [prednisolone, prednisolone acetate, reference compound]
[2]; prednisolone for 10 days, baseline 10.2 (±1.1) mmHg
  mean (±SD) IOP: 24.1(±1.6) mmHg
HTM cells
  reduction in outflow facility compared to baseline: ~73%
PLAT
  PLAT expression: downregulation
MMP-2, MMP-9, MMP-13 [4]; PA treated HTM cells
  MMP-13 mRNA: below detectable limits

## C[C@]12N[C@H](Cc3ccccc31)c1ccccc12 [MK-801, reference compound]
MMP-2, MMP-9, MMP-13 [4]; [5]
  MMP-2 expression: significantly lower
  MMP-9 expression: significantly lower
